Here are results for six molecules from US12252524B2, “GIP/GLP1 co-agonist compounds” (Eli Lilly and Company, priority 2018, dated 2025).

Assay [1] has as its target human GLP-1 receptor (GLP-1R) (Homo sapiens, UniProt P43220). Nature of the assay: cAMP pharmacological functional assay in presence of casein, hGLP-1R. The format is cell-based. The following applies: HEK293 cells expressing hGLP-1R, 0.1% Casein, geometric mean; read-out: hGLP1R cAMP Rel EC50 nM (SEM, n).
Another assay deals with T1, human GIP receptor (Homo sapiens, UniProt P48546).
T1 construct: expressed in transfected cells; crude membranes
T1 sequence (P48546 22-466): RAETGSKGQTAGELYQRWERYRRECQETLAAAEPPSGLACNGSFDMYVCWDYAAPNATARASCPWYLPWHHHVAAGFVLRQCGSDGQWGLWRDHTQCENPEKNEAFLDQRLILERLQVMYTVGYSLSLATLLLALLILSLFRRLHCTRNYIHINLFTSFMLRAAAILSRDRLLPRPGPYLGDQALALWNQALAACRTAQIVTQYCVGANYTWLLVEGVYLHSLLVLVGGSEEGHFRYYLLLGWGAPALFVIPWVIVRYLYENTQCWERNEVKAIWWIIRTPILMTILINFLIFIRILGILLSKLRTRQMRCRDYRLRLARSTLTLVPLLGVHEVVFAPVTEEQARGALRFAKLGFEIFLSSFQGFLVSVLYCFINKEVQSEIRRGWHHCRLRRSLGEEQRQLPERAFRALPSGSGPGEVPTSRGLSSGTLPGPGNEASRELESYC
Nature of the assay: [125I]-GIP binding (SPA), human GIP receptor. The following applies: read-out: hGIPR Ki, nM (SEM, n).

For the next assay, the target named is T2, human Gcg receptor (Homo sapiens, UniProt P47871).
T2 construct: expressed in transfected cells; crude membranes
The assay can be described thus: [125I]-Glucagon binding (SPA), human Gcg receptor. The note with it: read-out: hGLcgR Ki, nM (SEM, n). Put shortly: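 Crude membranes from cells expressing the receptor, prepared by hypotonic lysis in 50 mM Tris HCl pH 7.5 with protease inhibitors, homogenization and differential centrifugation, were used in a WGA-bead SPA. Binding buffer: 25 mM HEPES pH 7.4, 2.5 mM CaCl2, 1 mM MgCl2, bacitracin, Tween-20.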

The target in another assay is human GLP-1R (Homo sapiens, UniProt P43220). Nature of the assay: [125I]-GLP-1 binding (SPA), human GLP-1 receptor. Set-up: expressed in transfected cells; crude membranes. The note with it: read-out: hGLP1R Ki, (nM) (SEM, n). In outline:
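Crude-membrane binding assay; one membrane prep included 1 mM MgCl2 and 25 units/ml DNAse I during lysis. Assay buffer at pH 7.4 contains 0.1% (w/v) bacitracin and 0.003% (w/v) TWEEN-20. Ki is reported as geometric mean.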

In assay [2] the target is T3, gastric inhibitory peptide receptor (GIPR) (Homo sapiens, UniProt P48546).
T3 sequence (P48546 22-466): T1 sequence (P48546 22-466)
Nature of the assay: cAMP pharmacological functional assay in presence of casein, hGIPR. The assay is classed as cell-based. The following applies: HEK293 cells expressing hGIPR, 0.1% Casein, geometric mean; read-out: hGIPR cAMP Rel EC50 nM (SEM, n).

T2 sequence (P47871 26-477): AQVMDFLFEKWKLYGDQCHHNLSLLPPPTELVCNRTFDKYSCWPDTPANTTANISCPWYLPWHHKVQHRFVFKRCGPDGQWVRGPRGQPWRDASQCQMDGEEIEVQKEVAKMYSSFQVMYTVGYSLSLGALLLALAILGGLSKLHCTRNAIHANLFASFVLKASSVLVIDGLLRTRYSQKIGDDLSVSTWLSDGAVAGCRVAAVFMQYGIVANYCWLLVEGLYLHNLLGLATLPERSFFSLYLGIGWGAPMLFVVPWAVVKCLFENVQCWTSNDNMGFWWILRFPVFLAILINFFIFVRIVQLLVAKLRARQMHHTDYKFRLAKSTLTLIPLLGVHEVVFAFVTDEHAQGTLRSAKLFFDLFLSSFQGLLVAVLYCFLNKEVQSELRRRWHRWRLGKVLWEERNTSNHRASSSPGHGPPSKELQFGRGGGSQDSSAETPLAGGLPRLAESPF
Chain of human GLP-1R (P43220 24-463): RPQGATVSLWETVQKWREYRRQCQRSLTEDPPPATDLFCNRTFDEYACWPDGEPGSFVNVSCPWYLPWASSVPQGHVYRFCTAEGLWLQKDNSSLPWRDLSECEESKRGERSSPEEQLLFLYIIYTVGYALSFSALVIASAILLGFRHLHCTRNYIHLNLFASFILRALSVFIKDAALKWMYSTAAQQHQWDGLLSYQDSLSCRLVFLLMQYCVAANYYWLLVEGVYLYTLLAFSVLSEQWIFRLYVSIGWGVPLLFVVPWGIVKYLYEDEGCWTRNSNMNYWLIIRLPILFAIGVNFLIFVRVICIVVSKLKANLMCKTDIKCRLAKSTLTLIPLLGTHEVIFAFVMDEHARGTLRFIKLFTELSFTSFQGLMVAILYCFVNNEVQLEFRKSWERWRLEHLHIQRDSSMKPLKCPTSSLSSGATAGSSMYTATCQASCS
Chain of human GLP-1 receptor (GLP-1R) (P43220 24-463): as above

For `CC[C@H](C)[C@H](NC(=O)[C@H](CC(C)C)NC(=O)[C@H](Cc1ccc(O)cc1)NC(=O)[C@H](CCC(=O)O)NC(=O)[C@@H](NC(=O)[C@H](Cc1ccccc1)NC(=O)[C@H](C)NC(=O)C(C)(C)NC(=O)[C@H](CCC(N)=O)NC(=O)[C@H](C)NC(=O)[C@H](CCCCNC(=O)COCCOCCNC(=O)COCCOCCNC(=O)CC[C@H](NC(=O)CCCCCCCCCCCCCCCCCCC(=O)O)C(=O)O)NC(=O)[C@H](CCCCN)NC(=O)[C@H](CC(=O)O)NC(=O)[C@H](CC(C)C)NC(=O)[C@H](CC(C)C)NC(=O)[C@@H](NC(=O)[C@](C)(CO)NC(=O)[C@H](Cc1ccc(O)cc1)NC(=O)[C@H](CC(=O)O)NC(=O)[C@H](CO)NC(=O)[C@@H](NC(=O)[C@H](Cc1ccccc1)NC(=O)[C@@H](NC(=O)CNC(=O)[C@H](CCC(=O)O)NC(=O)C(C)(C)NC(=O)[C@@H](N)Cc1ccc(O)cc1)[C@@H](C)O)[C@@H](C)O)[C@@H](C)CC)[C@@H](C)CC)C(=O)N[C@@H](CCC(=O)O)C(=O)NCC(=O)NCC(=O)N1CCC[C@H]1C(=O)N[C@@H](CO)C(=O)N[C@@H](CO)C(=O)NCC(=O)N[C@@H](C)C(=O)N1CCC[C@H]1C(=O)N1CCC[C@H]1C(=O)N1CCC[C@H]1C(=O)N[C@@H](CO)C(N)=O` [Example 68], the results for the EC50 in assay [1] and in assay [2] were 0.153 nM and 0.0881 nM, respectively. The figures for the Ki on human GIP receptor, on human Gcg receptor and on human GLP-1R were 0.0243 nM, 99.2 nM and 1.58 nM, respectively.
`CC[C@H](C)[C@H](NC(=O)[C@H](CC(C)C)NC(=O)[C@H](Cc1ccc(O)cc1)NC(=O)[C@H](CCC(=O)O)NC(=O)[C@@H](NC(=O)[C@](C)(Cc1ccccc1)NC(=O)[C@H](C)NC(=O)C(C)(C)NC(=O)[C@H](CCC(N)=O)NC(=O)[C@H](C)NC(=O)[C@H](CCCCNC(=O)COCCOCCNC(=O)COCCOCCNC(=O)CC[C@H](NC(=O)CCCCCCCCCCCCCCCCCCC(=O)O)C(=O)O)NC(=O)[C@H](CCCCN)NC(=O)[C@H](CC(=O)O)NC(=O)[C@H](CC(C)C)NC(=O)[C@](C)(CC(C)C)NC(=O)[C@@H](NC(=O)[C@H](CO)NC(=O)[C@H](Cc1ccc(O)cc1)NC(=O)[C@H](CC(=O)O)NC(=O)[C@H](CO)NC(=O)[C@@H](NC(=O)[C@H](Cc1ccccc1)NC(=O)[C@@H](NC(=O)CNC(=O)[C@H](CCC(=O)O)NC(=O)C(C)(C)NC(=O)[C@@H](N)Cc1ccc(O)cc1)[C@@H](C)O)[C@@H](C)O)[C@@H](C)CC)[C@@H](C)CC)C(=O)N[C@@H](CCC(=O)O)C(=O)NCC(=O)NCC(=O)N1CCC[C@H]1C(=O)N[C@@H](CO)C(=O)N[C@@H](CO)C(=O)NCC(=O)N[C@@H](C)C(=O)N1CCC[C@H]1C(=O)N1CCC[C@H]1C(=O)N1CCC[C@H]1C(=O)N[C@@H](CO)C(N)=O` [Example 74]: the EC50 (commonly the concentration giving half of the maximal effect) stood at 0.467 nM in assay [1] and 0.0866 nM in assay [2]. Moreover, the Ki (as a rule, a measure of affinity in units of concentration, obtained from inhibition or displacement) on human GIP receptor was determined as 0.0279 nM; at human Gcg receptor it was 69.8 nM; at human GLP-1R it was 5.99 nM.
Take `CC[C@H](C)[C@H](NC(=O)[C@H](Cc1ccccc1)NC(=O)[C@H](C)NC(=O)C(C)(C)NC(=O)[C@H](CCC(N)=O)NC(=O)[C@H](C)NC(=O)[C@H](CCCCNC(=O)COCCOCCNC(=O)COCCOCCNC(=O)CC[C@H](NC(=O)CCCCCCCCCCCCCCCCCCC(=O)O)C(=O)O)NC(=O)[C@H](CCCCN)NC(=O)[C@H](CC(=O)O)NC(=O)[C@H](CC(C)C)NC(=O)[C@](C)(CC(C)C)NC(=O)[C@@H](NC(=O)[C@H](CO)NC(=O)[C@H](Cc1ccc(O)cc1)NC(=O)[C@H](CC(=O)O)NC(=O)[C@H](CO)NC(=O)[C@@H](NC(=O)[C@H](Cc1ccccc1)NC(=O)[C@@H](NC(=O)CNC(=O)[C@H](CCC(=O)O)NC(=O)C(C)(C)NC(=O)[C@@H](N)Cc1ccc(O)cc1)[C@@H](C)O)[C@@H](C)O)[C@@H](C)CC)C(=O)N[C@@H](CCC(=O)O)C(=O)N[C@@H](Cc1ccc(O)cc1)C(=O)N[C@@](C)(CC(C)C)C(=O)N[C@H](C(=O)N[C@@H](CCC(=O)O)C(=O)NCC(=O)NCC(=O)N1CCC[C@H]1C(=O)N[C@@H](CO)C(=O)N[C@@H](CO)C(=O)NCC(=O)N[C@@H](C)C(=O)N1CCC[C@H]1C(=O)N1CCC[C@H]1C(=O)N1CCC[C@H]1C(=O)N[C@@H](CO)C(N)=O)[C@@H](C)CC` [Example 75]: the 50% effective concentration (EC50) in assay [1] came out at 1.49 nM; in assay [2], 0.214 nM. In addition, the Ki came to 0.103 nM on human GIP receptor, 283 nM at human Gcg receptor and 24.4 nM at human GLP-1R.
Turning to `CC[C@H](C)[C@H](NC(=O)[C@H](CC(C)C)NC(=O)[C@H](Cc1ccc(O)cc1)NC(=O)[C@H](CCC(=O)O)NC(=O)[C@@H](NC(=O)[C@](C)(Cc1ccccc1)NC(=O)[C@H](C)NC(=O)C(C)(C)NC(=O)[C@H](CCC(N)=O)NC(=O)[C@H](C)NC(=O)[C@H](CCCCNC(=O)COCCOCCNC(=O)COCCOCCNC(=O)CC[C@H](NC(=O)CCCCCCCCCCCCCCCCCCC(=O)O)C(=O)O)NC(=O)[C@H](CCCCN)NC(=O)[C@H](CC(=O)O)NC(=O)[C@H](CC(C)C)NC(=O)[C@](C)(CC(C)C)NC(=O)[C@@H](NC(=O)[C@H](CO)NC(=O)[C@H](Cc1ccc(O)cc1)NC(=O)[C@H](CC(=O)O)NC(=O)[C@H](CO)NC(=O)[C@@H](NC(=O)[C@](C)(Cc1ccccc1)NC(=O)[C@@H](NC(=O)CNC(=O)[C@H](CCC(=O)O)NC(=O)C(C)(C)NC(=O)[C@@H](N)Cc1ccc(O)cc1)[C@@H](C)O)[C@@H](C)O)[C@@H](C)CC)[C@@H](C)CC)C(=O)N[C@@H](CCC(=O)O)C(=O)NCC(=O)NCC(=O)N1CCC[C@H]1C(=O)N[C@@H](CO)C(=O)N[C@@H](CO)C(=O)NCC(=O)N[C@@H](C)C(=O)N1CCC[C@H]1C(=O)N1CCC[C@H]1C(=O)N1CCC[C@H]1C(=O)N[C@@H](CO)C(N)=O` [Example 76], the EC50 is 0.125 nM in assay [1] and 0.124 nM in assay [2]. Moreover, the Ki was 0.0659 nM on human GIP receptor, 14.4 nM on human Gcg receptor and 2.64 nM at human GLP-1R.
For the molecule `CC[C@H](C)[C@H](NC(=O)[C@H](CC(C)C)NC(=O)[C@H](Cc1ccc(O)cc1)NC(=O)[C@H](CCC(=O)O)NC(=O)[C@@H](NC(=O)[C@H](Cc1ccccc1)NC(=O)[C@H](C)NC(=O)C(C)(C)NC(=O)[C@H](CCC(N)=O)NC(=O)[C@H](C)NC(=O)[C@H](CCCCNC(=O)COCCOCCNC(=O)COCCOCCNC(=O)CC[C@H](NC(=O)CCCCCCCCCCCCCCCCCCC(=O)O)C(=O)O)NC(=O)[C@H](CCCCN)NC(=O)[C@H](CC(=O)O)NC(=O)[C@H](CC(C)C)NC(=O)[C@H](CC(C)C)NC(=O)[C@@H](NC(=O)[C@H](CO)NC(=O)[C@H](Cc1ccc(O)cc1)NC(=O)[C@H](CC(=O)O)NC(=O)[C@H](CO)NC(=O)[C@@H](NC(=O)[C@H](Cc1ccccc1)NC(=O)[C@@H](NC(=O)CNC(=O)[C@H](CCC(=O)O)NC(=O)C(C)(C)NC(=O)[C@H](N)Cc1ccc(O)cc1)[C@@H](C)O)[C@@H](C)O)[C@@H](C)CC)[C@@H](C)CC)C(=O)N[C@@H](CCC(=O)O)C(=O)NCC(=O)NCC(=O)N1CCC[C@H]1C(=O)N[C@@H](CO)C(=O)N[C@@H](CO)C(=O)NCC(=O)N[C@@H](C)C(=O)N1CCC[C@H]1C(=O)N1CCC[C@H]1C(=O)N1CCC[C@H]1C(=O)N[C@@H](CO)C(N)=O` [Example 78], the EC50 in assay [1] turned out to be 0.544 nM; in assay [2] it was 0.532 nM. Also, the Ki was 0.163 nM on human GIP receptor, 215 nM on human Gcg receptor and 3.94 nM at human GLP-1R.
As for `CC[C@H](C)[C@H](NC(=O)[C@H](CC(C)C)NC(=O)[C@H](Cc1ccc(O)cc1)NC(=O)[C@H](CCC(=O)O)NC(=O)[C@@H](NC(=O)[C@H](Cc1ccccc1)NC(=O)[C@H](C)NC(=O)C(C)(C)NC(=O)[C@H](CCC(N)=O)NC(=O)[C@H](C)NC(=O)[C@H](CCCCNC(=O)COCCOCCNC(=O)COCCOCCNC(=O)CC[C@H](NC(=O)CCCCCCCCCCCCCCCCCCC(=O)O)C(=O)O)NC(=O)[C@H](CCCCN)NC(=O)[C@H](CC(=O)O)NC(=O)[C@H](CC(C)C)NC(=O)[C@H](CC(C)C)NC(=O)[C@@H](NC(=O)[C@H](CO)NC(=O)[C@H](Cc1ccc(O)cc1)NC(=O)[C@H](CC(=O)O)NC(=O)[C@H](CO)NC(=O)[C@@H](NC(=O)[C@H](Cc1ccccc1)NC(=O)[C@@H](NC(=O)CNC(=O)[C@H](CCC(=O)O)NC(=O)[C@H](C)NC(=O)[C@@H](Cc1ccc(O)cc1)NC(C)=O)[C@@H](C)O)[C@@H](C)O)[C@@H](C)CC)[C@@H](C)CC)C(=O)N[C@@H](CCC(=O)O)C(=O)NCC(=O)NCC(=O)N1CCC[C@H]1C(=O)N[C@@H](CO)C(=O)N[C@@H](CO)C(=O)NCC(=O)N[C@@H](C)C(=O)N1CCC[C@H]1C(=O)N1CCC[C@H]1C(=O)N1CCC[C@H]1C(=O)N[C@@H](CO)C(N)=O` [Example 79], the EC50 in assay [1] amounted to 2.02 nM; in assay [2], 0.0732 nM. Besides, the Ki on human GIP receptor was 0.0313 nM; on human Gcg receptor, 429 nM; on human GLP-1R it was 2.69 nM.
